The subject of series [1] is HMC3 cells. The experiment in a line: Aβ degradation assay in HMC3 cells with exocytosis inhibitor GW4869. In kind it is cell-based, human. As to conditions: Aβ 1 µM 1 h, wash, then 3 h with 10 µM GW4869 ± 30 µM HAEE, ELISA, n = 3. The procedure:
HMC3 cells were treated with 1 µM Aβ in serum-free culture medium for 1 h to allow for peptide internalization. Cells were then washed to remove extracellular Aβ. […] Aβ released into the cell culture medium during the degradation phase was also quantified by ELISA.

Series [2] has as its target T1, Aβ (Homo sapiens, UniProt P05067).
T1 construct: purchased Peptide Specialty Laboratories GmbH; host or cells: synthetic peptide
Nature of the series: Aβ level in mouse brain tissue after i.c.v. oligomeric Aβ and HAEE (ELISA). As to conditions: C57BL/6 mice, HAEE 100 µM 1 μL i.c.v. days 1-3, n = 8. It is filed as in vivo. The procedure:
(§1) After a recovery period, mice were randomly divided into two experimental groups using online GraphPad random number generator (Figure 1A, n = 8 per group): 1. The Aβ group received oligomeric Aβ and vehicle solution (ACSF). 2. The Aβ + HAEE group received oligomeric Aβ and the synthetic tetrapeptide HAEE (100 µM). The group allocation was unknown to the researchers who performed the neurosurgical procedures and ELISA.
(§2) On day 1, all mice received an intracerebroventricular (i.c.v.) injection of oligomeric Aβ (1 μL). Immediately after, mice received the first i.c.v. injection of either HAEE (1 μL) or ACSF (1 μL). Injections were repeated on days 2 and 3 (HAEE or ACSF only). All injections were performed on awake, freely moving mice through the guide cannula at a rate of 1 μL/min. […]
(§3) Aβ levels in the brain and cell lysates were measured by sandwich ELISA using BAM113cc capture antibodies (50 ng/well, HyTest, Moscow, Russia) and peroxidase-labeled BAM7cc antibodies (100 ng/well, HyTest, Moscow, Russia) as described in [46]. Aβ level was normalized to the protein concentration in the samples, measured using a Pierce™ BCA Protein Assay Kit (Thermo Fisher Scientific, Waltham, MA, USA). The rate of Aβ degradation was calculated as the difference in normalized Aβ level in the cells between the 48-hour and 24-hour time points divided by 24 h. […]
In general terms: ELISA stands for enzyme-linked immunosorbent assay.

Series [3] relates to IL-6. The experiment in a line: IL-6 level in mouse brain tissue after i.c.v. oligomeric Aβ and HAEE (ELISA). It is filed as in vivo. As to conditions: C57BL/6 mice; i.c.v. oligomeric Aβ day 1; HAEE 100 µM 1 μL i.c.v. days 1-3; ELISA of brain homogenate; vs Aβ + ACSF; n = 8. The procedure: IL-6 and TNFα in all samples were assessed using commercial ELISA kits (IL-6 Mouse Uncoated ELISA Kit, Mouse TNF alpha Uncoated ELISA Kit, Thermo Fisher Scientific, Waltham, MA, USA) according to the manufacturer’s instructions.

Series [4] concerns TNFα. Nature of the series: TNFα level in mouse brain tissue after i.c.v. oligomeric Aβ and HAEE (ELISA). It is filed as in vivo. As to conditions: C57BL/6 mice; i.c.v. oligomeric Aβ day 1; HAEE 100 µM 1 μL i.c.v. days 1-3; ELISA of brain homogenate; n = 8. The method, then: as §1, §2, §3
Series [5] has as its system bEnd.3 cells. Nature of the series: BBB transwell model: Aβ passage through bEnd.3 monolayer. In kind it is cell-based, mouse. As to conditions: transwell 0.4 μm, Aβ 100 nM, HAEE 20 μM in abluminal compartment, serum-free DMEM, 37 °C, 24 h, ELISA, n = 5.
Description: For the experiments, mouse bEnd.3 cells were seeded onto the upper surface of transwell inserts (Greiner Bio-One, Kremsmünster, Austria; pore size 0.4 μm) at a density of 70,000 cells per insert and cultured for 7 days to form a confluent monolayer. The volume of medium in the luminal (upper) compartment was 750 μL and in the abluminal (lower) compartment was 1 mL.
The luminal (upper) compartment contained 700 μL of serum-free DMEM. The plates were incubated at 37 °C and 5% CO2. Samples were collected from the luminal compartment at 24 h. […] To control model BBB integrity, paracellular permeability of the bEnd.3 monolayer was assessed using the fluorescent label sodium fluorescein (Sigma-Aldrich, St. Louis, MO, USA) in each experiment as described in [46].
Series [6] concerns the target T2, LRP1 (Mus musculus, UniProt Q91ZX7).
T2 construct: endogenous in cells; host or cells: bEnd.3
The experiment in a line: Inhibitory assay: blocking antibody to LRP1, Aβ level in bEnd.3 cells. In kind it is cell-based. As to conditions: blocking antibody 10 μg/mL 1 h, Aβ 100 nM + HAEE 20 μM, 2 h, ELISA, n = 3–4.
Description: Cells were incubated with blocking antibodies to LRP or Pgp receptors (10 μg/mL, Santa Cruz Biotechnology, Dallas, TX, USA) for 1 h at +37 °C. […] After 2 h, the cells were washed 3 times with PBS, frozen in liquid nitrogen, and lysed in IP lysis buffer (ServiceBio, Wuhan, China) with the addition of a protease inhibitor (Thermo Fisher Scientific, Waltham, MA, USA) for 1 h at +4 °C with stirring. The cell lysate was centrifuged at 16,000× g, +4 °C, 10 min and the supernatant was collected. The amount of total protein in the lysates was determined using a BCA assay kit (Sigma-Aldrich, St. Louis, MO, USA) according to the manufacturer’s protocol.

Series [7] deals with mixed primary culture of mouse brain cells. The experiment in a line: Aβ uptake and clearance in mixed primary culture of brain cells (ELISA). In kind it is cell-based, C57BL/6 mouse. To be noted: Aβ 1 µM, HAEE 30 µM, n = 4.
Series [8] deals with primary astrocyte culture. Nature of the series: Aβ uptake and clearance in primary astrocyte culture (ELISA). In kind it is cell-based, C57BL/6 mouse. To be noted: Aβ 1 µM, HAEE 30 µM, n = 4.
Series [9] has as its system HMC3 microglial cells. Nature of the series: Aβ uptake and clearance in HMC3 microglial cells (ELISA). It is filed as cell-based, human. To be noted: Aβ 1 µM, HAEE 30 µM, n = 6.
In series [10] the test system is HMC3 cells. The experiment in a line: Lysosomal staining of HMC3 cells with LysoTracker Red DND-99. To be noted: Aβ 1 μM + HAEE 30 μM, 24 h, 10 cells per field, n = 3. It is filed as cell-based, human.
Description: Two hours prior to the completion of the incubation period, LysoTracker Red DND-99 (Thermo Fisher Scientific, Waltham, MA, USA) was added to the culture medium at a final concentration of 50 nM to label acidic compartments, including active lysosomes. Immediately before live-cell imaging, cell nuclei were counterstained with NucBlue Live Cell Stain (Thermo Fisher Scientific, Waltham, MA, USA) according to the manufacturer’s instructions. Fluorescent images were acquired using a Nikon Eclipse Ni-U (Nikon Corp., Tokyo, Japan) microscope with appropriate filter sets.
The target in series [11] is T3, Aβ oligomers (Homo sapiens, UniProt P05067).
T3 construct: purchased Peptide Specialty Laboratories GmbH; host or cells: synthetic peptide
T3 sequence (P05067 672-713): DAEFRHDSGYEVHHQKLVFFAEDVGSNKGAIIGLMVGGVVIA
The experiment in a line: Dynamic light scattering of Aβ oligomers. In kind it is physicochemical. As to conditions: Aβ 50 µM in PBS, 24 h 37 °C, then HAEE 500 µM for additional 24 h 37 °C; measured at 25 °C; triplicate. The method, then:
The size distribution of Aβ oligomers was characterized by DLS using a Zetasizer Nano ZS instrument (Malvern Panalytical, Malvern, UK). Oligomeric Aβ was prepared as described in Section 4.6 and further incubated at a concentration of 50 µM in PBS for 24 h at 37 °C to promote oligomerization. To assess the effect of HAEE, the peptide was added to the pre-formed Aβ oligomers at a final concentration of 500 µM (dissolved in PBS), and the mixture was incubated for an additional 24 h at 37 °C. A control sample containing Aβ without HAEE was processed in parallel under identical conditions. Immediately prior to analysis, samples were briefly centrifuged to sediment any large aggregates and transferred to a disposable polystyrene cuvette (Sarstedt, Nümbrecht, Germany). Measurements were performed at 25 °C, and the hydrodynamic diameter (reported as Z-average) and polydispersity index (PDI) were derived from the correlation function using the Zetasizer Software version 7.13 (Malvern Panalytical, Malvern, UK). Each sample was measured in triplicate.

Series [12] concerns the target T3, Aβ oligomers. The experiment in a line: Oligomer-specific ELISA of Aβ. To be noted: pre-formed Aβ oligomers in the presence vs absence of HAEE; BAM7cc capture and detection. It is filed as biochemical. The method, then:
To measure Aβ oligomers using ELISA, two antibodies (a capture antibody and a detector antibody) targeting the same epitope are used. This method therefore allows for the detection of predominantly oligomeric forms of Aβ, which have epitopes available for binding to both the detection antibody and the capture antibody.
BAM7cc antibodies (HyTest, Moscow, Russia), which recognize the N-terminus of Aβ, were added to a 96-well ELISA plate (Wuxi NEST Biotechnology, Wuxi, China) in a volume of 100 μL (0.5 ng/μL) and incubated overnight at +4 °C. The wells of the plate were washed 3 times with 300 μL of PBST (0.05% Tween20) and blocked in 1% BSA (Diaem, Moscow, Russia) in PBST at room temperature and shaken for 1 h. The plate was then washed three times with 300 μL of PBST, and samples were added at a volume of 100 μL per well. The plates were incubated for 2 h at room temperature with shaking, washed 3 times with 300 μL of PBST, and HRP-conjugated BAM7cc antibodies (HyTest, Moscow, Russia) were added at a volume of 100 μL per well (1 ng/μL). The plates were incubated for 1 hour at room temperature with shaking, washed 5 times with 300 μL of PBST, and analyzed using TMB (Diaem, Moscow, Russia). Absorbance was measured at 450 nm using a Multiskan FC Microplate Photometer (Thermo Fisher Scientific, Waltham, MA, USA).

Series [13] relates to HMC3 cells. Nature of the series: IL-6 level in HMC3 supernatant (ELISA). In kind it is cell-based, human. As to conditions: Aβ 1 µM + HAEE 30 µM, 24 h, n = 3.
Excerpt: Subsequently, cells were frozen in liquid nitrogen.
The subject of series [14] is HMC3 cells. Nature of the series: Intracellular ROS and GSH in HMC3 cells by flow cytometry. In kind it is cell-based, human. As to conditions: Aβ + HAEE, 24 h.
Description: The cells were stained with dihydrorhodamine 123 (Ex/Em = 507/525 nm) or monobromobimane (Ex/Em = 395/495 nm) according to ThermoFisher Scientific’s instructions. One minute prior to analysis, 10 μg/mL of propidium iodide (Ex/Em = 535/617 nm, Sigma, St. Louis, MO, USA) was added to the cell samples to evaluate the number of dead cells in the population. The analysis was performed using a BD LSR Fortessa flow cytometer (Becton Dickinson, Franklin Lakes, NJ, USA) and FlowJo^TM Software v.10.8.1 (Becton Dickinson, Franklin Lakes, NJ, USA).
The conditions of series [15]: cited from earlier work. An excerpt: ApoE4 is the primary genetic risk factor for the sporadic form of AD. Unlike other ApoE isoforms, ApoE4 impairs TREM2-dependent microglial phagocytosis, promotes microglial activation, and contributes to chronic neuroinflammation in AD [41, 42].
Series [16] concerns nicotinic α4β2 acetylcholine receptors. The arrangement: method as in PMID 34207317. To be noted: cited from earlier work.
Series [17] concerns zinc-induced Aβ oligomers. The arrangement: method as in PMID 32872553, PMID 21081056. As to conditions: binds to Aβ at the 11EVHH14 site; cited from earlier work.

Residues, ends and D or L forms follow the SMILES beside them.

T1 sequence (P05067 672-713): as above
T2 sequence (Q91ZX7 20-4545): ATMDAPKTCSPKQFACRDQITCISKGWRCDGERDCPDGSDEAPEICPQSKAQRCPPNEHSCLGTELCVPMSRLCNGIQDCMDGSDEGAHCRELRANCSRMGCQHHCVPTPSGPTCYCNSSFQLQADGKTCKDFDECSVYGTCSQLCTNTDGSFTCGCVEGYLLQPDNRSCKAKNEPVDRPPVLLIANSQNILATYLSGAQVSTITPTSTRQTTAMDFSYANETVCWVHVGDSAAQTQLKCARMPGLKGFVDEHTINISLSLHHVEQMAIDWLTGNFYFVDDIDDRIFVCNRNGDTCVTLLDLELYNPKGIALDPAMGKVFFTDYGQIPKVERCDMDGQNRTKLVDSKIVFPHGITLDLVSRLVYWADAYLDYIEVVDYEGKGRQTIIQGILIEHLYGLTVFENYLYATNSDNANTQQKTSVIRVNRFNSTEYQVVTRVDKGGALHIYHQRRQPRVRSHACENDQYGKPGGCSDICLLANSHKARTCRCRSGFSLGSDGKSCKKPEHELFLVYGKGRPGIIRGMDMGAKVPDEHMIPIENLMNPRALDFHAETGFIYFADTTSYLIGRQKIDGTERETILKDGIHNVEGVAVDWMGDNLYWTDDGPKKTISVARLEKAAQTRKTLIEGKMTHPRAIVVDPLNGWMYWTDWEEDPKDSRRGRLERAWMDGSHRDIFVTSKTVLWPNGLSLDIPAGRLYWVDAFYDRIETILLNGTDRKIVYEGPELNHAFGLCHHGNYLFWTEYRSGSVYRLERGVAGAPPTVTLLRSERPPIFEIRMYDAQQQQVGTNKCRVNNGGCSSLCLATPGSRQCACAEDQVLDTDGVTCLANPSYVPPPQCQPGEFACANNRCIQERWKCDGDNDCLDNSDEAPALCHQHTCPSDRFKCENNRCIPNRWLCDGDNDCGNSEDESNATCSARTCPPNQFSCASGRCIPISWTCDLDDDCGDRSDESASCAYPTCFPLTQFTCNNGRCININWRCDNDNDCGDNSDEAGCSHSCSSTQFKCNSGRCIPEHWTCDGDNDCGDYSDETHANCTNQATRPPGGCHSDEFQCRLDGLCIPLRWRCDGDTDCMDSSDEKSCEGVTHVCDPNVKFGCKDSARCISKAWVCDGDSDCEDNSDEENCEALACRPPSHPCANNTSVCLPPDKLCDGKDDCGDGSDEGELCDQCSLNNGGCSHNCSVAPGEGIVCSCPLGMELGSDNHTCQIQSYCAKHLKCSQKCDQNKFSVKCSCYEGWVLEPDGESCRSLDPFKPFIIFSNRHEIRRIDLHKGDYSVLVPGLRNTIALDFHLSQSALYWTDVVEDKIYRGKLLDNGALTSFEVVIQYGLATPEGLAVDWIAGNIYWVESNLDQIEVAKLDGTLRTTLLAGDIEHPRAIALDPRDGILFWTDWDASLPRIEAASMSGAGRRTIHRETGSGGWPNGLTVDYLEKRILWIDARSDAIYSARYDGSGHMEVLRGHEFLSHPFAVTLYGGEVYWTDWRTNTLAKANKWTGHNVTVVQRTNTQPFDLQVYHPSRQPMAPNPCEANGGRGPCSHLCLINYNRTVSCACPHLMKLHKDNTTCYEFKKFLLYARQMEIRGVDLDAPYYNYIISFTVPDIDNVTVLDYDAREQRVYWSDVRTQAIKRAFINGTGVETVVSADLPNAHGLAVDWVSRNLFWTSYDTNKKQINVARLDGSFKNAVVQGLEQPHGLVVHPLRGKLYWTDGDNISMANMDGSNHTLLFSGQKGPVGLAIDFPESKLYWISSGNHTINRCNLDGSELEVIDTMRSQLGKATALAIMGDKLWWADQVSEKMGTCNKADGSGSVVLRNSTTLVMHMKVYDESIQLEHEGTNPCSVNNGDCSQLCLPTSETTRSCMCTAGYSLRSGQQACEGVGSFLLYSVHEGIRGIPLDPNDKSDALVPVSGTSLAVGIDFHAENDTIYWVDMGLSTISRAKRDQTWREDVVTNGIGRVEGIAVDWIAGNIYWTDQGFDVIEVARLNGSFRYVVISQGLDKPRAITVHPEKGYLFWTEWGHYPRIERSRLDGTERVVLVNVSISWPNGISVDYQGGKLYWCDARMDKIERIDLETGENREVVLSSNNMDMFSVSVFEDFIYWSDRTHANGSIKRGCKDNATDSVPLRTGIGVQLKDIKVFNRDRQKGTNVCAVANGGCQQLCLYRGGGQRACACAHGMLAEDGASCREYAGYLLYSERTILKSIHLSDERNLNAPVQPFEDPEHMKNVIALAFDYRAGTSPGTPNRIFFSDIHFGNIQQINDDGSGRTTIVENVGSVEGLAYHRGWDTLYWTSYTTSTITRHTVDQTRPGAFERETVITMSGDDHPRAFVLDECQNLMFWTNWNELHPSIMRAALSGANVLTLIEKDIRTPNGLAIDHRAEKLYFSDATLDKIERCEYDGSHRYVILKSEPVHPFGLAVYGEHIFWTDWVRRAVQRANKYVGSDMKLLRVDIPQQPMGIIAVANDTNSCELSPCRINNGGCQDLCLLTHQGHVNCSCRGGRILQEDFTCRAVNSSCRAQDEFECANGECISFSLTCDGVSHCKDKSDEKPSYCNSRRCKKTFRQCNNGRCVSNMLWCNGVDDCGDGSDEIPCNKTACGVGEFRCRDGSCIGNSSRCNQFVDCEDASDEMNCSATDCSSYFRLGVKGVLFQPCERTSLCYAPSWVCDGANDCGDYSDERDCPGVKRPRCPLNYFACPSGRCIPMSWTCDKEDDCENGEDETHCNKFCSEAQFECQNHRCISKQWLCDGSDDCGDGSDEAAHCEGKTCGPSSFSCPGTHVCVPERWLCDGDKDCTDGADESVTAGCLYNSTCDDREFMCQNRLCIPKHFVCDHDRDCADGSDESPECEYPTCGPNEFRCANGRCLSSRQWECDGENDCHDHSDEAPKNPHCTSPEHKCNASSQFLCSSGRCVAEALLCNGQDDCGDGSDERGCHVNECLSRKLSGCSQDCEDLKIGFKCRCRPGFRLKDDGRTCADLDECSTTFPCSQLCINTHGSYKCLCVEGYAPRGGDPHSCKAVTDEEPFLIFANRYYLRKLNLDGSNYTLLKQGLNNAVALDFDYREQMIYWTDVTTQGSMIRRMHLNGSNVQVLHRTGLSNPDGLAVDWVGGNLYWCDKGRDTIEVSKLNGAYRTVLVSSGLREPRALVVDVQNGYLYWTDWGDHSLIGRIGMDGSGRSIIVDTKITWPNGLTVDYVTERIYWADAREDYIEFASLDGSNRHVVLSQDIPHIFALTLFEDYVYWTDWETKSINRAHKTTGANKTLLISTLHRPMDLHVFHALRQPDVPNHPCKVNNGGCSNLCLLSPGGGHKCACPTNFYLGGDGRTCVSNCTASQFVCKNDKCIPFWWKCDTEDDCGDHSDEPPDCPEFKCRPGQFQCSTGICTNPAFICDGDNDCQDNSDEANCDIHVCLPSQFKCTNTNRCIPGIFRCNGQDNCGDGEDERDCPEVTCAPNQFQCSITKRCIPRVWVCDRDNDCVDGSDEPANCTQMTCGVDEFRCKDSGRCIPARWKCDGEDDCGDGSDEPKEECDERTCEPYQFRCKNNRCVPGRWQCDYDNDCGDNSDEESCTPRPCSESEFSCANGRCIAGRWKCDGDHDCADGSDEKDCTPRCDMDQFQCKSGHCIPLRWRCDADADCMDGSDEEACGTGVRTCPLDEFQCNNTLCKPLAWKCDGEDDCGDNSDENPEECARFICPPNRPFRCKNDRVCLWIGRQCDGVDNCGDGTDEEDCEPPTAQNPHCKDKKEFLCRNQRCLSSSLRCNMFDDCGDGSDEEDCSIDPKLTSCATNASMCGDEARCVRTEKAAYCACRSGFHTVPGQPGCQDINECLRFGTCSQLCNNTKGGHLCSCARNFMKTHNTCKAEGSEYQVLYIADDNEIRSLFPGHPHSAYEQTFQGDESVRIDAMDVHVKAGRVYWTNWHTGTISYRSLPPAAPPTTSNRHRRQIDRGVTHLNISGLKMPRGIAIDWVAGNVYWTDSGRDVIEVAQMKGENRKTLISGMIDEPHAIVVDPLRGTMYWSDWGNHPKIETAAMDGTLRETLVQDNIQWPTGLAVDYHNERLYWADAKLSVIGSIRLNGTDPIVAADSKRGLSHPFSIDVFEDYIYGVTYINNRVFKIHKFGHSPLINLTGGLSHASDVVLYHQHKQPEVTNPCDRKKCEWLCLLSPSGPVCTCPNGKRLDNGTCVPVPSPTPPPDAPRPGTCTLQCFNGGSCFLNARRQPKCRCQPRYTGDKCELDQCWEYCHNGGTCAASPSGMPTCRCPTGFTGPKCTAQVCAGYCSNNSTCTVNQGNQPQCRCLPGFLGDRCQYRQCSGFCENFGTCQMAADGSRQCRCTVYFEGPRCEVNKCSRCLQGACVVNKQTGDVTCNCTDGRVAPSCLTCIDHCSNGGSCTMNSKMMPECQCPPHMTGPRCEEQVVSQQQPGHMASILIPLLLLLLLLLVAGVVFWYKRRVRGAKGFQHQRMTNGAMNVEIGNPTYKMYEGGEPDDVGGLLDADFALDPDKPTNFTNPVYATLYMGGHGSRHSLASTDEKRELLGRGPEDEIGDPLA

As for `O=C(/C=C/c1ccc(/C=C/C(=O)Nc2ccc(C3=NCCN3)cc2)cc1)Nc1ccc(C2=NCCN2)cc1` [GW4869, reference compound], the “effect of GW4869 on HAEE-dependent Aβ clearance in microglial cells” value in [1] is listed as “did not prevent the effect of HAEE”.

Turning to `CC(=O)N[C@@H](Cc1c[nH]cn1)C(=O)N[C@@H](C)C(=O)N[C@@H](CCC(=O)O)C(=O)N[C@@H](CCC(=O)O)C(N)=O` [HAEE, Acetyl-HAEE-Amide] (Ac-HAEE-NH2), the “reduction of Aβ level in mouse brain tissue” value in series [2] (8-month-old, i.c.v. oligomeric Aβ 1 μL day 1, brain lysate ELISA 30 min after final injection, vs Aβ + ACSF) is given as 35%. In [2] (i.c.v. oligomeric Aβ day 1, ELISA), the “Aβ level in the brain of mice treated with HAEE compared to animals that did not receive the tetrapeptide” value was “reliably reduced”. The “decrease in IL-6 levels in mouse brain tissue” value in series [3] came to 40%. Besides, in [4], the “effect on TNFα levels in mouse brain tissue” value is given as “no effect”. In addition, the “rate of Aβ passage across the BBB from abluminal to luminal compartment” value in [5] is “significantly increased”. Further, the “reduction of Aβ uptake by endothelial cells on blocking LRP1, in the presence of HAEE” value in [6] is on record as 30%. The “effect on Aβ clearance by the cells at 24–48 h” value in series [7] (clearance rate = difference of Aβ level 48 h vs 24 h divided by 24 h) is recorded as “notably accelerated”. The “effect on intracellular Aβ level at 4–24 h” value in series [7] (medium without FBS, ELISA) was “did not significantly affect”. Also, in series [8] (24–48 h period), the “effect on the rate of Aβ clearance” value is reported as “did not affect”. Also, the “level of intracellular Aβ after 24–48 h of incubation compared to cells treated with Aβ alone” value in [8] (ELISA) is “decreased”. The “rate of Aβ clearance” value in [9] (24–48 h period) is “doubled”. For the same molecule, the “amount of intracellular Aβ after 24 h and 48 h of incubation compared to cells not treated with HAEE” value in series [9] (ELISA) is on record as “significantly reduced”. Besides, the “effect on Aβ-induced changes in lysosomes (size and number)” value in series [10] is “completely abolished”. The “reduction of intracellular Aβ level, HAEE + GW4869 compared to GW4869 alone” value in series [1] worked out at 40%. In series [11], the “average size of Aβ oligomers (DLS)” value is “reduced their average size”. Besides, in series [12], the “amount of Aβ oligomers (oligomer-specific ELISA)” value is “reduced the amount of Aβ oligomers”. Moreover, in [13], the “effect on Aβ-induced increase in IL-6 level” value is “effectively inhibited”. Moreover, in series [14] (dihydrorhodamine 123, n = 4), the “effect on Aβ-induced change in reactive oxygen species (ROS) level” value is recorded as “completely prevented”. For the same molecule, the “effect on Aβ-induced change in reduced glutathione (GSH) level” value in series [14] (monobromobimane, n = 4) is “completely prevented”. In addition, in [15], the toxicity result is “non-toxic”. Besides, in series [16], the “effect on the inhibitory effect of Aβ42 on nicotinic α4β2 acetylcholine receptors” value is “completely abolishes”. Moreover, the “formation of toxic, zinc-induced Aβ oligomers” value in [17] was “blocks”.

The values above are taken from PMC12692722, “The Tetrapeptide HAEE Promotes Amyloid-Beta Clearance from the Brain” (International Journal of Molecular Sciences, 2025).
